Assay results published in patent US7989451B2, “Tricyclic 1,2,4-triazine oxides and compositions for therapeutic use in cancer treatments” (Auckland Uniservices Limited, priority 2005, dated 2011).
Read-outs that look alike come from different tables or passages of the source.

Key:
[1] = system: SiHa, human cervical carcinoma; test: Fractionated tumour excision assay, SiHa xenograft; type: in vivo, CD-1 nude mice; conditions: for log cell kill compared to radiation alone: i.p. at 100% of MTD twice daily for 4 days, 30 min before each of 8×2.5 Gy, excised 18 hr after treatment
Experimental: (§1) FIG. 3 illustrates by way of a plot the activity of fractionated dose TPZ and compound 77 against hypoxic cells in three human tumour xenograft models: H460, non-small cell lung carcinoma; HT29, human colon carcinoma; SiHa, human cervical carcinoma. Drugs (1.0× fractionated MTD) were administered 30 min before each of 8×2.5 Gy doses of radiation.
(§2) The activity of multiple doses of compound 77 and TPZ against hypoxic cells in three human tumour xenografts is illustrated in FIG. 3. Subcutaneous tumours (average of two largest diameters 8-10 mm) were grown by inoculating 10^7 cells into the midline of the back in CD-1 nude mice. Drugs were administered by i.p. injection at 100% of the MTD for twice daily (9 am, 3 pm) administration for 4 days, either alone or 30 min before each of 8×2.5 Gy local irradiation of the tumour. Tumours were excised 18 hr after treatment and plated to determine the number of clonogens/g tumour tissue. Antitumour activity is measured as logs of cell kill in addition to the cell kill observed for radiation alone.

[2] = system: hypoxic cells in HT29 tumours; test: HT29 excision assay, single dose in combination with radiation; type: in vivo, CD-1 nude mice
Experimental: HT29 Excision assay. In vivo activity of single dose of compound 77 in combination with radiation. The activity of compound 77 against hypoxic cells in HT29 tumours is illustrated in FIG. 1. Subcutaneous HT29 tumours (average of two largest diameters 8-10 mm) were grown by inoculating 10^7 cells (obtained by enzymatic dissociation of multicellular spheroids) into CD-1 nude mice. Cmpd 77 was administered as a single i.p. dose (560 μmol/kg, which is 75% of the maximum tolerated dose) alone or 5 min after radiation (20 Gy). Tumours were excised 18 h after treatment and plated to determine the number of clonogens/g tumour tissue.

[3] = system: human colon carcinoma HT29; test: Proliferation assay (IC50) under aerobic and hypoxic conditions, HT29; type: cell-based; conditions: for IC50: Homo sapiens, 4 h drug exposure, sulforhodamine B; for HCR: hypoxic cytotoxicity ratio = IC50 aerobic/IC50 hypoxic
Method in brief: (§3)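 HT29 (1100) and SiHa (1500) cells in αMEM with 17 mM glucose and 100 μM 2′-dCyd, exposed 4 h at 37 °C to 3-fold dilutions under 20% O2 or anoxia (<0.001% O2). Regrowth 5 (oxic) or 6 (anoxic) days; IC50 by sulforhodamine B. HCR = IC50 aerobic/IC50 hypoxic.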

[4] = system: HT29, human colon carcinoma; test: Fractionated tumour excision assay, HT29 xenograft; type: in vivo, CD-1 nude mice; conditions: for log cell kill compared to radiation alone: i.p. at 100% of MTD twice daily for 4 days, 30 min before each of 8×2.5 Gy, excised 18 hr after treatment
Experimental: as §1, §2

[5] = system: H460, non-small cell lung carcinoma; test: Fractionated tumour excision assay, H460 xenograft; type: in vivo, CD-1 nude mice; conditions: for log cell kill compared to radiation alone: i.p. at 100% of MTD twice daily for 4 days, 30 min before each of 8×2.5 Gy, excised 18 hr after treatment
Experimental: as §1, §2

[6] = system: human cervical carcinoma SiHa; test: Proliferation assay (IC50) under aerobic and hypoxic conditions, SiHa; type: cell-based; conditions: for IC50: Homo sapiens, 4 h drug exposure, sulforhodamine B; for HCR: hypoxic cytotoxicity ratio = IC50 aerobic/IC50 hypoxic
Method in brief: as §3

[7] = HT-29, hypoxic (anaerobic chamber, <0.001% O2), then 6 days growth, read-out: IC50 (μM) hypoxic
[8] = HT-29, oxic (20% O2), then 5 days growth, read-out: IC50 (μM) oxic
[9] = fractionated drug plus 8×2.5 Gy radiation
[10] = hypoxic (anaerobic chamber, <0.001% O2), then 6 days growth, read-out: IC50 (μM) hypoxic
[11] = oxic (20% O2), then 5 days growth, read-out: IC50 (μM) oxic

IC50 [3, 7] [µM] | IC50 [3, 8] [µM] | IC50 [6, 10] [µM] | IC50 [6, 11] [µM] | melting point [°C] | Compound | log cell kill in addition to radiation alone, 77 plus radiation relative to TPZ plus radiation ([1]; SiHa tumours, p<0.05, Student's t-test) | killing relative to TPZ ([1]; SiHa, fractionated drug plus 8×2.5 Gy radiation) | log cell kill compared to radiation alone ([1]; SiHa) | Hypoxic cytotoxicity: difference in clonogens/g tumour tissue between radiation-only and radiation+drug groups ([2]; single i.p. dose 560 μmol/kg (75% of MTD) 5 min after radiation (20 Gy), tumours excised 18 h after treatment, ANOVA and Dunnett's test) | Selectivity for hypoxic cells: activity with radiation versus as a single agent ([2]; single i.p. dose 560 μmol/kg alone or 5 min after radiation (20 Gy)) | HCR [3] | killing relative to TPZ [4, 9] | log cell kill compared to radiation alone [4] | killing relative to TPZ [5, 9] | log cell kill compared to radiation alone [5] | HCR [6]
8.9 ± 0.4 | 218 ± 54 | 5.05 ± 0.01 | 216 | 150 to 154 | [O-][n+]1nc(CCCN2CCOCC2)[n+]([O-])c2cc3c(cc21)CCO3 [Compound 216, 3-[3-(4-Morpholinyl)propyl]-7,8-dihydrofuro[2,3-g][1,2,4]benzotriazine 1,4-Dioxide] | – | – | – | – | – | 25 ± 6 | – | – | – | – | 43
13 ± 7 | 471 ± 443 | 4.7 ± 3.3 | 304 ± 254 | 175 to 179 | CN(C)CCNc1n[n+]([O-])c2cc3c(cc2[n+]1[O-])OCO3 [Compound 224, N^1-(1,4-Dioxido[1,3]dioxolo[4,5-g][1,2,4]benzotriazin-3-yl)-N^2,N^2-dimethyl-1,2-ethanediamine] | – | – | – | – | – | 26 ± 21 | – | – | – | – | 53 ± 17
1.5 | 38 ± 10 | 0.31 | 25 ± 6 | 152 to 154 | CN(C)CCNc1n[n+]([O-])c2cc3c(cc2[n+]1[O-])CCCO3 [Compound 242, N^1-(1,4-Dioxido-7,8-dihydro-6H-chromeno[6,7-e][1,2,4]triazin-3-yl)-N^2,N^2-dimethyl-1,2-ethanediamine] | – | – | – | – | – | 19 | – | – | – | – | 60
2.6 ± 0.03 | 154 ± 19 | 1.1 ± 0.5 | 111 ± 51 | 120 to 124 | CCNc1n[n+]([O-])c2cc3c(cc2[n+]1[O-])CN(C)CC3 [Compound 259, N-Ethyl-7-methyl-6,7,8,9-tetrahydro[1,2,4]triazino[6,5-g]isoquinolin-3-amine 1,4-Dioxide] | – | – | – | – | – | 59 ± 7 | – | – | – | – | 100 ± 2
13 ± 1 | 24 ± 2 | 3.1 ± 0.1 | 18 ± 1 | 124 to 128 | CCc1n[n+]([O-])c2cc3c(cc2[n+]1[O-])CN(C)CC3 [Compound 261, 3-Ethyl-7-methyl-6,7,8,9-tetrahydro[1,2,4]triazino[6,5-g]isoquinoline 1,4-Dioxide] | – | – | – | – | – | 2 ± 0.2 | – | – | – | – | 6 ± 0.2
– | – | – | – | – | Nc1n[n+]([O-])c2ccccc2[n+]1[O-] [TPZ, tirapazamine, reference compound] | – | – | significantly (P<0.05) greater log cell kill | – | – | – | – | significantly (P<0.05) greater log cell kill | – | significantly (P<0.05) greater log cell kill | –

Compound | IC50 [3, 7] [µM] | IC50 [3, 8] [µM] | IC50 [6, 10] [µM] | IC50 [6, 11] [µM] | melting point [°C] | log cell kill in addition to radiation alone, 77 plus radiation relative to TPZ plus radiation ([1]; SiHa tumours, p<0.05, Student's t-test) | killing relative to TPZ ([1]; SiHa, fractionated drug plus 8×2.5 Gy radiation) | log cell kill compared to radiation alone ([1]; SiHa) | Hypoxic cytotoxicity: difference in clonogens/g tumour tissue between radiation-only and radiation+drug groups ([2]; single i.p. dose 560 μmol/kg (75% of MTD) 5 min after radiation (20 Gy), tumours excised 18 h after treatment, ANOVA and Dunnett's test) | Selectivity for hypoxic cells: activity with radiation versus as a single agent ([2]; single i.p. dose 560 μmol/kg alone or 5 min after radiation (20 Gy)) | HCR [3] | killing relative to TPZ [4, 9] | log cell kill compared to radiation alone [4] | killing relative to TPZ [5, 9] | log cell kill compared to radiation alone [5] | HCR [6]
[O-][n+]1nc(CCCN2CCOCC2)[n+]([O-])c2cc3c(cc21)CCC3 [Compound 77, 3-[3-(4-Morpholinyl)propyl]-7,8-dihydro-6H-indeno[5,6-e][1,2,4]triazine 1,4-Dioxide] | 2.8 ± 0.6 | 349 ± 62 | 1.4 ± 0.3 | 302 ± 48 | – | significantly greater | greater killing than TPZ | significantly (P<0.05) greater log cell kill | statistically significant (p<0.05) | greater activity of 77 with radiation than as a single agent | 127 ± 12 | greater killing than TPZ | significantly (P<0.05) greater log cell kill | greater killing than TPZ | significantly (P<0.05) greater log cell kill | 223 ± 14
